The values below come from US20220289731A1, “MELANOCORTIN-4 RECEPTOR AGONISTS” (LG CHEM, LTD., priority 2019, published 2022).

For orientation: inhibition means the drop in the measured response relative to a control, in per cent.

Each structure is given as a SMILES string. A value given as a limit tells only on which side of the number the result lay.

What all share (assay): CYP inhibition, recombinant enzyme, fluorescence
Assay type in all cases: in vitro ADME

Data set [1] has as its target CYP3A4 (Homo sapiens, UniProt P08684). To be noted: recombinant CYP3A4, pH 7.4, 10 μM compound, 30 min pre-incubation, read-out: CYP inhibition (%) at 10 μM, 3A4. How it is done:
(§1) The following Table 8 was referred for the use of a probe substrate, positive control, and isozyme and measurement conditions with respect to the measurement of the inhibitory ability of each substance. [table] […] The buffer spiked with experimental compound was mixed with the same volume of CYP isozyme prep solution so that the final concentration was 10 μM, followed by pre-warming for 10 minutes in a 37° C. fluorescence plate-reader. Each well NRS solution (NADPH Regeneration System: 0.22 mM β-NADP, 2.8 mM glucose-6-phosphate, and 0.6 units/mL of glucose-6-phosphate dehydrogenase) was added, followed by pre-incubation for 30 minutes. Thereafter, the reaction was initiated by adding the substrate to the well subjected to pre-incubation and monitored at intervals of one minute at the measurement wavelength for each substrate for 30 minutes. The measured values obtained from the positive control and the compound of Example 1 were compared with the fluorescence intensity of a negative control (no inhibition or compound) to confirm the inhibitory ability of each compound against isozyme. Inhibitory activity (%) was expressed based on the following criteria: […]

Data set [2] concerns the target CYP2C19 (Homo sapiens, UniProt P33261). To be noted: recombinant CYP2C19, pH 7.4, 10 μM compound, 30 min pre-incubation, read-out: CYP inhibition (%) at 10 μM, 2C19. How it is done:
as §1

Data set [3] has as its target CYP2C9 (Homo sapiens, UniProt P11712). To be noted: 10 μM compound; for inhibition at 30 min, 10 µM: human, recombinant CYP2C9, pH 7.4, 30 min pre-incubation, read-out: CYP inhibition (%) at 10 μM, 2C9. How it is done: as §1
The target in data set [4] is CYP2D6 (Homo sapiens, UniProt P10635). The note with it: recombinant CYP2D6, pH 7.4, 10 μM compound, 30 min pre-incubation, read-out: CYP inhibition (%) at 10 μM, 2D6. How it is done:
as §1

Data set [5] has as its target T1, CYP1A2 (Homo sapiens, UniProt P05177).
T1 sequence (P05177 1-516): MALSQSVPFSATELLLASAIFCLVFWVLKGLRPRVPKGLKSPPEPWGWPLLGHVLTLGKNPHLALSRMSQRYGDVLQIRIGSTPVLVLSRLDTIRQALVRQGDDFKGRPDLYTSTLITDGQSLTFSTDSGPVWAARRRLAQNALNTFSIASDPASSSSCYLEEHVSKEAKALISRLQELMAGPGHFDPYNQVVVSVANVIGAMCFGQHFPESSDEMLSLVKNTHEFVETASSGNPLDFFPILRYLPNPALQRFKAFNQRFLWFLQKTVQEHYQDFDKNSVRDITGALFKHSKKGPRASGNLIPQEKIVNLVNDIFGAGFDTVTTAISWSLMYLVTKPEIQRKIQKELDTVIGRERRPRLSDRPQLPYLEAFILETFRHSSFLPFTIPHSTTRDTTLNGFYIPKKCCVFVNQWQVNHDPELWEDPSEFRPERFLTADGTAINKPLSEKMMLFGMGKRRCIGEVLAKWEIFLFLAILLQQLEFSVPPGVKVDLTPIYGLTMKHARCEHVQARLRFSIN
To be noted: recombinant CYP1A2, pH 7.4, 10 μM compound, 30 min pre-incubation, read-out: CYP inhibition (%) at 10 μM, 1A2. How it is done: as §1

Chain of CYP2C9 (P11712 whole entry): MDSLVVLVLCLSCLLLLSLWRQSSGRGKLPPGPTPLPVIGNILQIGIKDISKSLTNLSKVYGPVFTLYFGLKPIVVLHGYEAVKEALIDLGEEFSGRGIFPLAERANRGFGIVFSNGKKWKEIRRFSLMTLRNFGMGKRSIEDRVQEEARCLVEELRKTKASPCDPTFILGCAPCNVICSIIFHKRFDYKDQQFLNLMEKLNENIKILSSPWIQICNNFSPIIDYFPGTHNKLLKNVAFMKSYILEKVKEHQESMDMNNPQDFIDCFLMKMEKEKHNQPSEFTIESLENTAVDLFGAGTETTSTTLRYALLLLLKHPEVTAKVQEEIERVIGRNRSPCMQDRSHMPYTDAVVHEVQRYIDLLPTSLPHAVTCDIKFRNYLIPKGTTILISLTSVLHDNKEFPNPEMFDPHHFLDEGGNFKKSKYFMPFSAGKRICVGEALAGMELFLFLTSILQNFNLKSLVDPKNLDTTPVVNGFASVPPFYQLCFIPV
Chain of CYP2C19 (P33261 whole entry): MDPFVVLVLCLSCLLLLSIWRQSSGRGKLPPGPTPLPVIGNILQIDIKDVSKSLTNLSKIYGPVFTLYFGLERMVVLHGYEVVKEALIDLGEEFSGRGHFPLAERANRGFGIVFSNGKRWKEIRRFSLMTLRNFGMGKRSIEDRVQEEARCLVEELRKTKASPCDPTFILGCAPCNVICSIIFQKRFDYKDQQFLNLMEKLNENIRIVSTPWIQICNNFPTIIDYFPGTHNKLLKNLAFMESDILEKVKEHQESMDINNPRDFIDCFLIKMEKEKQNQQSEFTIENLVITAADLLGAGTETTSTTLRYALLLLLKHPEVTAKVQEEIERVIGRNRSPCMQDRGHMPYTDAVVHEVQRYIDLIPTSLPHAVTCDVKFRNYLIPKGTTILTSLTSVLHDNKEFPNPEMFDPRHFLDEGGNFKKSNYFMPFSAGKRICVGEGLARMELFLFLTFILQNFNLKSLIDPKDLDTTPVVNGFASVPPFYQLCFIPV
Chain of CYP3A4 (P08684 whole entry): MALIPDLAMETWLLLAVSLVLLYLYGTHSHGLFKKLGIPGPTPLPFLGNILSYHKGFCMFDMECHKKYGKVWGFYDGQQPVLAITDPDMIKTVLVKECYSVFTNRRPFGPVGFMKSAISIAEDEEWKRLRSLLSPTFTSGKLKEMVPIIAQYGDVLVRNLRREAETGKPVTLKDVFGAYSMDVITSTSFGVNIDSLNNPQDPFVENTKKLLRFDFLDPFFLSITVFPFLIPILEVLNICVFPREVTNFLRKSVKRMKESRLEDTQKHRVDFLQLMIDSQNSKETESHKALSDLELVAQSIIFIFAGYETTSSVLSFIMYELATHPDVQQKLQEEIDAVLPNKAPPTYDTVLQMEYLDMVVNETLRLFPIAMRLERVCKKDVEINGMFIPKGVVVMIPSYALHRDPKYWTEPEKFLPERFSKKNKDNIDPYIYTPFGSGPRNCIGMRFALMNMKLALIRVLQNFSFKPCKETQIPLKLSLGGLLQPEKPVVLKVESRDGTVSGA
Chain of CYP2D6 (P10635 whole entry): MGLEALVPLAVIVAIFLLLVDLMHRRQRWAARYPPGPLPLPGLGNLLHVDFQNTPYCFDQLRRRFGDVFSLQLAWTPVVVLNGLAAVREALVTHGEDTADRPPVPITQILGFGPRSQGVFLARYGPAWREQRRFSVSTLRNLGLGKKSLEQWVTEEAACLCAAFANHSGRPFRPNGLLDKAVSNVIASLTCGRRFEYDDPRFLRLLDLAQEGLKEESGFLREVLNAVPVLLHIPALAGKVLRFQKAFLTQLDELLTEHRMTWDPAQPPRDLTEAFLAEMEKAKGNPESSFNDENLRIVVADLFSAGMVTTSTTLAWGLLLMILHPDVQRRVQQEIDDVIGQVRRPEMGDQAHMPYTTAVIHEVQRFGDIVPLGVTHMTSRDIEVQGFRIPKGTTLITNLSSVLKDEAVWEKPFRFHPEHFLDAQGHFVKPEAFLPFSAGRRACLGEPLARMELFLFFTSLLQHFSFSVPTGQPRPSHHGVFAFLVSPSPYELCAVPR

In the case of `CC(=O)N(C1CCC(C)(C)CC1)[C@H]1C[C@@H](C(=O)N2CCOCC2)N(C(=O)[C@@H]2CN(C(C)(C)C)C[C@H]2c2ccc(Cl)cc2)C1.Cl` [Comparative Example 2 (A96), N-((3S,5S)-1-((3S,4R)-1-(tert-butyl)-4-(4-chlorophenyl)pyrrolidine-3-carbonyl)-5-(morpholine-4-carbonyl)pyrrolidin-3-yl)-N-(4,4-dimethylcyclohexyl)acetamide hydrochloride], the inhibition at 30 min, 10 µM was less than 50% in data set [1]; less than 50% in data set [2]; greater than 50% in data set [3]; less than 50% in data set [4]; less than 50% in data set [5]. For the same compound, the “Inhibitory ability against CYP2C9 (in words)” value in data set [3] was “very high inhibitory ability”.

`CC(C)C(=O)N([C@H]1C[C@@H](C(=O)N2CCOCC2)N(C(=O)[C@@H]2CN(C(C)(C)C)C[C@H]2c2ccc(Cl)cc2)C1)[C@H]1CC[C@@H](C)CC1.Cl` [Example 1, N-((3S,5S)-1-((3S,4R)-1-(tert-butyl)-4-(4-chlorophenyl)pyrrolidine-3-carbonyl)-5-(morpholine-4-carbonyl)pyrrolidin-3-yl)-N-((1s,4R)-4-methylcyclohexyl)isobutyramide hydrochloride]: the inhibition at 30 min, 10 µM in data set [1], in data set [2], in data set [3], in data set [4] and in data set [5] was less than 50% throughout.
